Assay results taken from publication PMC11487190 (2024).

What was measured:
[1] = tested on: semi-synthetic tbpA aptamer (residues 1-89 + 3' anchoring sequence) (RNA, riboswitch, azide-modified U at 14 (clicked to Cy5)) GUUCUCAACGGGGUGCCACGCGUACGCGUGCGCUGAGAAAAUACCCGUCGAACCUGAUCCGGAUAACGCCGGCGAAGGGAUUUGAGGCUCCCCGGCCCCCCGGCC; experiment: smFRET (TIRF); conditions: 20 mM MgCl2, 20 mM NaCl; 1 mM TPP; folded state 14% to 48%; Tris-HCl buffer, pH 7.5
[2] = tested on: 30S ribosomal subunit; experiment: toeprint (primer extension); conditions: tRNA-fMet, with TPP; Toeprint buffer, salt, pH and temperature not given in the material; scale: fold decrease of toeprint efficiency vs no TPP

Row | binding [1] | Compound | binding signal [2]
1 | yes | Cc1ncc(C[n+]2csc(CCOP(=O)(O)OP(=O)(O)O)c2C)c(N)n1 | –
2 | – | tbpA riboswitch nascent transcript (toeprint) | 2.2
